How the values were obtained:
[1] = system: HMGCoAR; experiment: Western blot, HMGCoAR protein level in HepG2 cells; assay type: cell-based, human; settings: HepG2, 50 µM, 24 h, mean ± SD
Protocol: The HepG2 cell line was bought from ATCC (HB-8065, ATCC from LGC Standards, Milan, Italy) and was cultured in DMEM high glucose with stable L-glutamine, supplemented with 10% FBS, 100 U/mL penicillin, 100 µg/mL streptomycin (complete growth medium) with incubation at 37 °C under 5% CO2 atmosphere.
Immunoblotting experiments were performed using optimized protocol. A total of 1.5 × 10^5 HepG2 cells/well (24-well plate) were treated with 50 μM of P5 and P5-met for 24 h. After each treatment, the supernatants were collected and stored at −20°C; cells were scraped in 40 µL ice-cold lysis buffer (RIPA buffer + inhibitor cocktail + 1:100 PMSF + 1:100 Na-orthovanadate + 1:1000 β-mercaptoethanol) and transferred in ice-cold microcentrifuge tubes. […] Total proteins were quantified by the Bradford’s method and 50 μg of total proteins loaded on a pre-cast 7.5% Sodium Dodecyl Sulfate-Polyacrylamide (SDS-PAGE) gel at 130 V for 45 min. […] Target proteins, on milk or BSA blocked membrane, were detected by primary antibodies as follows: anti-SREBP-2, anti-LDLR, anti-HMGCoAR, anti-PCSK9, anti HNF1-α and anti-β-actin. Secondary antibodies conjugated with HRP and a chemiluminescent reagent were used to visualize target proteins and their signal was quantified using the Image Lab Software (Biorad, Hercules, CA, USA). […]

[2] = system: differentiated Caco-2 cells; experiment: Trans-epithelial transport across differentiated Caco-2 cell monolayer; assay type: in vitro ADME, human; settings: for Amount in the BL compartment after 30 min: alone, 500 μM in AP, Caco-2 AP to BL
Protocol: Human intestinal Caco-2 cells, obtained from INSERM (Paris, France), where cultured according to a published protocol. For differentiation, they were seeded on polycarbonate filters, 12 mm diameter, 0.4 µm pore diameter (Transwell, Corning Inc., Lowell, MA, US) at a 3.5 × 10^5 cells/cm^2 density in complete medium supplemented with 10% FBS in both AP and BL compartments for 2 d to allow the formation of a confluent cell monolayer. Starting from day three after seeding, cells were transferred to FBS-free medium in both compartments, supplemented with ITS (final concentration 10 mg/L insulin (I), 5.5 mg/L transferrin (T), 6.7 μg/L sodium selenite (S); GIBCO-Invitrogen, San Giuliano Milanese, Italy) only in the basolateral (BL) compartment, and allowed to differentiate for 18–21 days with regular medium changes three times weekly.
The transepithelial electrical resistance (TEER) of differentiated Caco-2 cells was measured at 37 °C using the voltmeter apparatus Millicell (Millipore Co., Billerica, MA, USA), immediately before and at the end of the transport experiments. In addition, at the end of transport experiments, cells were incubated from the AP side with 1 mM phenol-red in PBS containing Ca^++ (0.9 mM) and Mg^++ (0.5 mM) for 1 h at 37 °C, to monitor the paracellular permeability of the cell monolayer. The BL solutions were then collected and NaOH (70 µL, 0.1 N) was added before reading the absorbance at 560 nm by a microplate reader Synergy H1 from Biotek (Winooski, VT, USA). Phenol-red passage was quantified using a standard phenol-red curve. Only filters showing TEER values and phenol red passages similar to untreated control cells were considered for peptide transport analysis.
Prior to experiments, the cell monolayer integrity and differentiation were checked by TEER measurement as described in detail above. Peptide trans-epithelial passage was assayed in differentiated Caco-2 cells in transport buffer solution (137 mM NaCl, 5.36 mM KCl, 1.26 mM CaCl2, and 1.1 mM MgCl2, 5.5 mM glucose) according to previously described conditions. In order to reproduce the pH conditions existing in vivo in the small intestinal mucosa, the apical (AP) solutions were maintained at pH 6.0 (buffered with 10 mM morpholinoethane sulfonic acid), and the basolateral (BL)solutions were maintained at pH 7.4 (buffered with 10 mM […]). Prior to transport experiments, cells were washed twice with 500 µL PBS containing Ca^++ and Mg^++. Peptide transportation by mature Caco-2 cells was assayed by loading the AP compartment with P5 alone, in mixture with […] (P3) and […] (P7), and/or P5-met (500 μM) in the AP transport solution (500 µL) and the BL compartment with the BL transport solution (700 µL). The plates were incubated at 37 °C and the BL solutions were collected at different time points (i.e., 15, 30, 60, 90, and 120 min) and replaced with fresh solutions pre-warmed at 37 °C. All BL and AP solutions collected at the end of the transport experiment were stored at −80 °C prior to analysis. Three independent transport experiments were performed, each in duplicate. In order to assess the involvement of transcytotic process in peptides passage, parallel transport experiments were performed in the presence of 500 nM wortmannin in both the AP and BL compartment, over 60 min incubation time.
The medium collected at the end of transport experiments from AP and BL chambers (500 µL and 700 µL, respectively) were freeze-dried and residues were solubilized in HPLC water (100 µL). Samples were desalted with C18 resin ZipTip by using 80% ACN, 0.1% FA as eluent (Millipore Corporation, Bedford, MA, USA). Each sample was lyophilized under speed-vacuum for 5 h at 30°C and re-dissolved in 50 μL (0.1% formic acid), before MS analysis. Purified BL samples were analyzed on a SL IT mass spectrometer interfaced with a HPLC- Chip Cube source (Agilent Technologies, Palo Alto, CA, USA). […]

**Q.** For H-LPKHSDAD-OH [Peptide P5-met], which “HMGCoAR protein level versus the control” value [1] is on record?
**A.** 117.9 ± 12.1%

**Q.** What about the “Effect of the transcytosis inhibitor wortmannin on transport across Caco-2 cells” value ([2]; 500 nM wortmannin in AP and BL compartments, 60 min, HPLC-Chip MS of BL compartment) of the same substance?
**A.** transported also in the presence of wortmannin

**Q.** And the “Amount in the BL compartment after 30 min” value ([2]; AP pH 6.0 / BL pH 7.4, 37 °C, LC-MS/MS MRM, mean ± SD of three independent experiments)?
**A.** 0.54 ± 0.02 µg

**Q.** And the “Amount in the BL compartment after 30 min” value ([2]; conversion of the µg value)?
**A.** 0.613 nmol

Source: publication PMC8000724, “Trans-Epithelial Transport, Metabolism, and Biological Activity Assessment of the Multi-Target Lupin Peptide [sequence] (P5) and Its Metabolite [sequence] (P5-Met)” (Nutrients, 2021)
